The record followed here is patent US8648066B2 (Exelixis, Inc., priority 2009, dated 2014).

A word on the IC50: it is the concentration that inhibits the measured activity by half.

Some results are limits rather than exact numbers.

The target of the test is mTOR/GbL/Raptor (mTORC1) (Homo sapiens, UniProt P42345). Kind of test: mTOR/GbL/Raptor (mTORC1) ELISA assay. The following applies: phosphorylation of 4E-BP1; 0.2 nM mTORC1, 10 μM ATP; read-out: IC50 in this assay (mTORC1 ELISA). In kind it is biochemical. In short, it runs like this:
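ELISA read-out: phospho-4E-BP1 captured on Ni-chelate plates and detected with anti-phospho antibody plus HRP-anti-IgG luminescence. The kinase step ran 120 min at ambient temperature with 0.2 nM human mTORC1, 10 µM ATP, 50 nM His-4E-BP1, 10 mM MnCl2, pH 7.2 HEPES.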
In general terms: In an ELISA, binding on a coated surface is turned into a signal by an enzyme label.
As for `CCc1ncnc(N2CCOc3ccc(-c4cnc5nc(C)[nH]c5c4)cc3C2)c1C` [Example 245, 4-(6-ethyl-5-methylpyrimidin-4-yl)-7-(2-methyl-1H-imidazo[4,5-b]pyridin-6-yl)-2,3,4,5-tetrahydro-1,4-benzoxazepine], the IC50 was in the range of 50 to 250 nM.

Consider `CCNc1nc2ccc(-c3ccc4c(c3)CN(c3cc(C)nc5ccccc35)CCO4)cc2[nH]1` [Example 246, N-ethyl-6-[4-(2-methylquinolin-4-yl)-2,3,4,5-tetrahydro-1,4-benzoxazepin-7-yl]-1H-benzimidazol-2-amine], for which the IC50 is 50 to 250 nM. For `CCNc1nc2ccc(-c3ccc4c(c3)CN(c3cc(C)nc5cc(OC)ccc35)CCO4)cc2[nH]1` [Example 247, N-ethyl-6-{4-[2-methyl-7-(methyloxy)quinolin-4-yl]-2,3,4,5-tetrahydro-1,4-benzoxazepin-7-yl}-1H-benzimidazol-2-amine], the IC50 lay in the range of 250 to 1000 nM. As for `CC1(C)CCc2ncnc(N3CCOc4ccc(-c5cnc6sc(N)nc6c5)cc4C3)c2C1` [Example 248, 6-[4-(6,6-dimethyl-5,6,7,8-tetrahydroquinazolin-4-yl)-2,3,4,5-tetrahydro-1,4-benzoxazepin-7-yl][1,3]thiazolo[5,4-b]pyridin-2-amine], the IC50 was ≤ 10 nM.

As for `Cc1ncnc(N2CCOc3ccc(-c4ccc5[nH]nc(N)c5c4)cc3C2)c1Cc1ccc(F)cc1` [Example 249, 5-(4-{5-[(4-fluorophenyl)methyl]-6-methylpyrimidin-4-yl}-2,3,4,5-tetrahydro-1,4-benzoxazepin-7-yl)-1H-indazol-3-amine], the IC50 fell in the range of 50 to 250 nM. For the compound `CCNc1nc2ncc(-c3ccc4c(c3)CN(c3ncnc(C)c3Cc3ccc(F)cc3)CCO4)cc2[nH]1` [Example 250, N-ethyl-6-(4-{5-[(4-fluorophenyl)methyl]-6-methylpyrimidin-4-yl}-2,3,4,5-tetrahydro-1,4-benzoxazepin-7-yl)-1H-imidazo[4,5-b]pyridin-2-amine], the IC50 was ≤ 10 nM. The result for `Cc1nc(N2CCOc3ccc(-c4ccc(-c5ncc[nH]5)cc4)cc3C2)c2ccccc2n1` [Example 251, 7-[4-(1H-imidazol-2-yl)phenyl]-4-(2-methylquinazolin-4-yl)-2,3,4,5-tetrahydro-1,4-benzoxazepine] reads 10 to 50 nM; that for `CC(O)c1nc2cc(-c3ccc4c(c3)CN(c3ncnc5c3CC(C)(C)CC5)CCO4)cnc2[nH]1` (stereo not drawn) [Example 252, 1-{6-[4-(6,6-dimethyl-5,6,7,8-tetrahydroquinazolin-4-yl)-2,3,4,5-tetrahydro-1,4-benzoxazepin-7-yl]-3H-imidazo[4,5-b]pyridin-2-yl}ethanol], ≤ 10 nM. The result for `Cc1nc2ccc(-c3ccc4c(c3)CN(c3ccnc(Nc5ccccc5)n3)CCO4)cc2[nH]1` [Example 253, 4-[7-(2-methyl-1H-benzimidazol-6-yl)-2,3-dihydro-1,4-benzoxazepin-4(5H)-yl]-N-phenylpyrimidin-2-amine] reads 50 to 250 nM. Take `CCc1nc2ccc(-c3ccc4c(c3)CN(c3ncnc5c3CC(C)(C)CC5)CCO4)cc2[nH]1` [Example 254, 4-(6,6-dimethyl-5,6,7,8-tetrahydroquinazolin-4-yl)-7-(2-ethyl-1H-benzimidazol-6-yl)-2,3,4,5-tetrahydro-1,4-benzoxazepine]: the IC50 is ≤ 10 nM. The value for `CCNc1nc2ccc(-c3ccc4c(c3)CN(c3ncnc5c3CC(C)(C)CC5)CCO4)cc2[nH]1` [Example 255, 6-[4-(6,6-dimethyl-5,6,7,8-tetrahydroquinazolin-4-yl)-2,3,4,5-tetrahydro-1,4-benzoxazepin-7-yl]-N-ethyl-1H-benzimidazol-2-amine] was ≤ 10 nM; that for `COc1ccc2c(N3CCOc4ccc(-c5ccc(-c6ncc[nH]6)cc5)cc4C3)nc(C)nc2c1` [Example 256, 7-[4-(1H-imidazol-2-yl)phenyl]-4-[2-methyl-7-(methyloxy)quinazolin-4-yl]-2,3,4,5-tetrahydro-1,4-benzoxazepine] was 10 to 50 nM.
